Earlier results in patent publication US10557153B2, “Degradation of lignocellulosic material” (DSM IP ASSETS B.V., priority 2008, dated 2020).

Key:
Conditions in all cases: S (Cellobiose) 2.5 g/L
[1] = system: Talaromyces beta-glucosidase
[2] = system: Trichoderma beta-glucosidase
[3] = system: A. niger beta-glucosidase
[4] = system: A. oryzae beta-glucosidase

OC[C@H]1O[C@@H](O[C@H]2[C@H](O)[C@@H](O)C(O)O[C@@H]2CO)[C@H](O)[C@@H](O)[C@@H]1O (stereo partly shown) [cellobiose]
Vmax (cellobiose) [1]: 1080 gr/gr protein/hr
Vmax (cellobiose) [2]: 470 gr/gr protein/hr
Vmax (cellobiose) [3]: 400 gr/gr protein/hr
Vmax (cellobiose) [4]: 10131 gr/gr protein/hr
